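96-well plates; 48 h exposure; 5 concentrations. Endpoints by linear interpolation between flanking doses. Not reached: highest tested concentration assigned. GI50 marks 50% less growth. TGI: concentration producing complete growth inhibition.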
Key:
Test in all cases: NCI anticancer screen, dose series, 48 h
HL-60(TB) leukemia = test system: HL-60(TB) leukemia
HCT-15 colon = test system: HCT-15 colon
ACHN renal = test system: ACHN renal
SK-MEL-28 melanoma = test system: SK-MEL-28 melanoma
HT29 colon = test system: HT29 colon
M14 melanoma = test system: M14 melanoma
EKVX NSCLC = test system: EKVX NSCLC
HS 578T breast = test system: HS 578T breast
RPMI-8226 leukemia = test system: RPMI-8226 leukemia
UACC-257 melanoma = test system: UACC-257 melanoma

| Structure (SMILES) | GI50 (HL-60(TB) leukemia) [µM] | TGI (HL-60(TB) leukemia) [µM] | GI50 (HCT-15 colon) [µM] | TGI (HCT-15 colon) [µM] | GI50 (ACHN renal) [µM] | TGI (ACHN renal) [µM] | GI50 (SK-MEL-28 melanoma) [µM] | TGI (SK-MEL-28 melanoma) [µM] | GI50 (HT29 colon) [nM] | TGI (HT29 colon) [µM] | GI50 (M14 melanoma) [µM] | TGI (M14 melanoma) [µM] | GI50 (EKVX NSCLC) [µM] | TGI (EKVX NSCLC) [µM] | GI50 (HS 578T breast) [µM] | TGI (HS 578T breast) [µM] | GI50 (RPMI-8226 leukemia) [µM] | TGI (RPMI-8226 leukemia) [µM] | GI50 (UACC-257 melanoma) [µM] | TGI (UACC-257 melanoma) [µM] |
| --- | --- | --- | --- | --- | --- | --- | --- | --- | --- | --- | --- | --- | --- | --- | --- | --- | --- | --- | --- | --- |
| CCn1nc(C2CCN(C(=O)CCO)CC2)nc1-c1cnc(N)c(-c2nnc(C(C)(C)C)o2)n1 | 0.263 | 97.5 | 6.17 | > 100 | 3.92 | > 100 | 4.78 | > 100 | 630 | 22 | 27.7 | > 100 | 6.69 | > 100 | 0.836 | 57 | 28 | > 76.7 | – | – |
| CCOc1ccccc1/C=N\N=C(N/N=C/c1ccccc1OCC)N/N=C/c1ccccc1OCC | 5.21 | > 100 | 0.95 | > 100 | 1.56 | > 100 | 4.38 | > 100 | 2230 | > 100 | – | – | 3.04 | > 100 | 2.22 | 8.39 | 1.73 | > 100 | 3.12 | > 100 |
| Cc1ccc(/C(=N/NS(=O)(=O)c2cc(C)c(Cl)cc2Cl)Sc2cc(Cl)c(C)cc2S(N)(=O)=O)cc1 | 70 | > 100 | > 100 | > 100 | 86.4 | > 100 | > 100 | > 100 | > 100000 | > 100 | > 100 | > 100 | 70.9 | > 100 | > 100 | > 100 | 51.3 | > 100 | > 100 | > 100 |
| COc1cc2c(/C=C3\C(=O)N(C)c4ccccc43)c[nH]c2cc1C | 2.53 | 84.8 | 0.33 | > 100 | 3.61 | 55.7 | > 22.4 | > 100 | 360 | – | 0.541 | > 100 | 8.81 | > 100 | 3.61 | > 38.8 | 1.42 | > 20.1 | 23.5 | > 100 |
| Cc1[nH]c2ccccc2c1CO | 15.8 | 39 | 18.5 | 93.2 | 22.8 | 88.8 | 16.6 | 34.3 | 15900 | 34.7 | 16.4 | 34.9 | 20.9 | 70.7 | 15.6 | 44 | 26.9 | > 100 | 24.1 | 60.2 |
| CN1CCN(C)C1c1ccc(C2N(C)CCN2C)cc1 | 37.7 | > 100 | 77.7 | > 100 | 80 | > 100 | 67.8 | > 100 | 21200 | 56.4 | 18.6 | 58.2 | > 100 | > 100 | 64 | > 100 | 19.3 | 59.1 | > 100 | > 100 |

Reference: PubChem BioAssay (NCI)
